# Source: patent publication US4073910A, “Method for treatment of diabetes” (Eisai Co., Ltd., priority 1975, dated 1978)
# Several values for one entry are separate records, joined by “and”; a condition that tells them apart may be missing. Equal values may be shown once.
# Key:
# alloxan diabetic rats = experiment: Effect on alloxan diabetes in rats (glycosuria, blood-sugar, urinary volume); type: in vivo, male wistar rats; conditions: for restraining effect on quantity of glycosuria: Compound TA 80 mg/Kg, Compound NA 20 mg/Kg p.o. once a day for three weeks; for quantity of blood-sugar versus alloxan diabetic control group (in words): FIGS. 3 and 4, after 24 hours and 12 hours fasting; for effect for treatment of alloxan-diabetes (conclusion): alloxan diabetic rats; for blood-sugar level compared with diabetic control group (summary) / quantity of glycosuria compared with diabetic control group (summary) / urinary volume compared with diabetic control group (summary): summary of experiments
# Protocol: Experiments were carried out in six-week male wistar rats weighing approximately 180 g. […] After 10 days, animals displaying abnormal quantity of glycosuria were selected as "diabetic" animals. Abnormality was arbitrarily determined as quantity of glycosuria for 24 hours over 0.5 g. Total 32 alloxan diabetic rats were divided into four aliquot groups of every eight rats at random. […] These rats were placed in the metabolism cage equiped with solid foods and drinking water. The foods were removed after 9 hours, and urine was collected from said rats for 24 hours. In other experience, total 45 alloxan diabetic rats were divided into three groups of aliquot. […] These rats were placed in the metabolism cages equiped with drinking water, and urine was collected for 12 hours. Blood was also collected in each case from the carotid artery of the rats under anesthesia. for the urine and the plasma, the following biochemical tests were effected. (a) Quantity of the blood-sugar and the glycosuria: Anthrone method.
# diabetics = experiment: Clinical data: blood sugar and ΔIRI/ΔBS in glucose tolerance test of diabetics; type: in vivo, human
# Protocol: There were selected 15 diabetics, whose blood-sugar values are 111-150 mg;, respectively. The diabetics are 56.8 years old in average, ranging from 49 to 65 years old. They consist of 10 males and 5 females.
# It was previously confirmed that the body weights of the diabetics are almost not varied during the continuation of dietetics.
# There were orally administered a daily dose of six capsules for 8 weeks, each capsule containing 100 mg of the Compound TN.
# Before and after the administration of the compound of the present invention, 50 g of sugar are orally administered to carry out glucose tolerance test. Quantities of blood-sugar were measured by means of Autoanalyzer with respect to the blood which was collected from the vein of the elbow. Further, quantities of insulin were measured, in accordance with Double antibody technic, before the glucose tolerance and after 30 minutes tolerance. From the following resulting quantities, value of ΔIRI/ΔBS was calculated.
# [1] = Test of acute toxicity in rats; type: in vivo; conditions: rat, in vivo
# Protocol: (§1) Acute toxicity of Compound TN for males and females of mice rats were tested.
# rats [2] = experiment: Test of acute toxicity in rats; type: in vivo; conditions: rats, administerable maximum quantity
# Protocol: as §1
# [3] = Test of acute toxicity in mice; type: in vivo; conditions: mouse, in vivo
# Protocol: as §1
# mice = experiment: Test of acute toxicity in mice; type: in vivo; conditions: mice, administerable maximum quantity
# Protocol: as §1
# pregnant mice = experiment: Test for malformation in pregnant mice; type: in vivo; conditions: oral, 100 to 1200 mg/Kg
# Solubility = type: physicochemical
# rats [4] = experiment: Test of subacute and chronic toxicity in rats; type: in vivo; conditions: 100 to 1000 mg/Kg, three or six months
# beagles = experiment: Test of subacute and chronic toxicity in beagles; type: in vivo; conditions: 100 mg/Kg, three or six months
# pregnant rats = experiment: Test for malformation in pregnant rats; type: in vivo; conditions: oral, 100 to 1200 mg/Kg
# blood-sugar amount = conditions: reported in 1955; cited from earlier work
# [5] = tested on: human diabetics (University Group Diabetes Program); conditions: oral administration, 8 years; cited from earlier work
# [6] = FIG. 1, urine for 24 hours, 100 mg/Kg p.o. once a day for three weeks
compound,measurement,setting,value
"CC(=O)Oc1c(C)c(C)c2c(c1C)CCC(C)(CCCC(C)CCCC(C)CCCC(C)C)O2 (racemic) [Compound TA, dl-α-tocopheryl acetate]",restraining effect on quantity of glycosuria,"alloxan diabetic rats; FIG. 1, urine for 24 hours",the restraining effect could not be found
same,quantity of blood-sugar versus alloxan diabetic control group (in words),alloxan diabetic rats; three weeks p.o.,there can not be found the differences
same,effect for treatment of alloxan-diabetes (conclusion),alloxan diabetic rats; three weeks p.o.,such effect can not be found
same,blood-sugar level compared with diabetic control group (summary),alloxan diabetic rats; three weeks p.o.,there could not be found the difference
same,quantity of glycosuria compared with diabetic control group (summary),alloxan diabetic rats; three weeks p.o.,there could not be found the difference
same,urinary volume compared with diabetic control group (summary),alloxan diabetic rats; three weeks p.o.,there could not be found the difference
"Cc1c(C)c2c(c(C)c1OC(=O)c1cccnc1)CCC(C)(CCCC(C)CCCC(C)CCCC(C)C)O2 (racemic) [Compound TN, dl-α-tocopherol nicotinate]",degree of adiposity,"diabetics; 15 diabetics, 8 weeks",there could hardly be found a tolerance with respect to the degree of adiposity
same,Blood Sugar (2) FBS (fasting blood sugar),"diabetics; individual patient, after administration, 600 mg/day p.o. (six 100 mg capsules) for 8 weeks",114 mg% and 126 mg% and 111 mg% and 124 mg% and 122 mg% and 119 mg% and 123 mg% and 104 mg% and 110 mg% and 121 mg% and 118 mg%
same,ΔIRI/ΔBS (30 min.),"diabetics; individual patient, after administration, 8 weeks, 30 min. tolerance",0.39 and 0.31 and 0.38 and 0.36 and 0.41 and 0.33 and 0.42 and 0.45 and 0.44 and 0.35 and 0.49
same,Blood Sugar (2) 1 hour,"diabetics; individual patient, after administration, 8 weeks, 1 hour after 50 g glucose tolerance",196 mg% and 193 mg% and 178 mg% and 198 mg% and 221 mg% and 201 mg% and 205 mg% and 174 mg% and 164 mg% and 211 mg% and 214 mg% and 195 mg% and 185 mg% and 197 mg%
same,Blood Sugar (2) 2 hours,"diabetics; individual patient, after administration, 8 weeks, 2 hours after 50 g glucose tolerance",185 mg% and 184 mg% and 164 mg% and 195 mg% and 189 mg% and 178 mg% and 186 mg% and 154 mg% and 179 mg% and 181 mg% and 163 mg% and 172 mg% and 190 mg%
same,Blood Sugar (2) 3 hours,"diabetics; individual patient, after administration, 8 weeks, 3 hours after 50 g glucose tolerance",136 mg% and 114 mg% and 121 mg% and 179 mg% and 175 mg% and 154 mg% and 171 mg% and 141 mg% and 105 mg% and 172 mg% and 130 mg% and 153 mg%
same,"Blood Sugar (2) 1 hour, mean","diabetics; mean of 15, after administration, 8 weeks, 1 hour tolerance, before administration 226.5, P<0.05",193.1 mg%
same,"Blood Sugar (2) 2 hours, mean","diabetics; mean of 15, after administration, 8 weeks, 2 hours tolerance, before administration 203.7, P<0.05",179.3 mg%
same,"Blood Sugar (2) 3 hours, mean","diabetics; mean of 15, after administration, 8 weeks, 3 hours tolerance, before administration 166.1, P<0.05",145.5 mg%
same,"ΔIRI/ΔBS (30 min.), mean","diabetics; mean of 15, after administration, 8 weeks, before administration 0.319, P<0.001",0.394
same,"Blood Sugar (2) FBS, mean","diabetics; mean of 15 diabetics, after administration, 8 weeks, before administration 128.1, P<0.001",116.3 mg%
same,LD50,[1]; im,> 10000 mg/kg
same,LD50,[1]; ip,> 2000 mg/kg
same,LD50,[1]; iv,> 250 mg/kg
same,LD50,[1]; po,> 15000 mg/kg
same,LD50,[1]; sc,> 15000 mg/kg
same,deaths in acute toxicity test,rats [2],there is no case wherein the test animals died
same,LD50,[3]; im,> 15000 mg/kg
same,LD50,[3]; ip,> 4000 mg/kg
same,LD50,[3]; iv,> 1000 mg/kg
same,LD50,[3]; po,> 20000 mg/kg
same,LD50,[3]; sc,> 20000 mg/kg
same,deaths in acute toxicity test,mice,there is no case wherein the test animals died
same,"effects for mothers, foetuses and neonatal animals",pregnant mice,"there could not be recognized any effects for mothers, foetuses and neonatal animals"
same,malformation,pregnant mice,no malformation could be entirely found
same,reduction of quantity of glycosuria versus diabetic control group (mean),alloxan diabetic rats; [6],1.3 g/day
same,reduction of quantity of glycosuria versus diabetic control group (percent),alloxan diabetic rats; [6],47%
same,quantity of glycosuria,"alloxan diabetic rats; FIG. 2, urine for 12 hours, p.o. once a day for three weeks, TN 100 mg/Kg or TA 88 + NA 20 mg/Kg, diabetic control 1.24 g/12 hours",0.76 g/12 hours
same,quantity of glycosuria versus diabetic control group (in words),"alloxan diabetic rats; FIG. 2, urine for 12 hours, three weeks p.o.",clearly reduced
same,urinary volume (in words),"alloxan diabetic rats; FIG. 5, after 12 hours, three weeks p.o.",reduces
same,quantity of blood-sugar versus alloxan diabetic control group (in words),alloxan diabetic rats; three weeks p.o.,reduces significantly the quantity of the blood-sugar
same,effect for treatment of alloxan-diabetes (conclusion),alloxan diabetic rats; three weeks p.o.,unique effect for treatment of alloxan-diabetes
same,blood-sugar level compared with diabetic control group (summary),alloxan diabetic rats; three weeks p.o.,small such as P = 0.05
same,quantity of glycosuria compared with diabetic control group (summary),alloxan diabetic rats; three weeks p.o.,small such as P = 0.05
same,urinary volume compared with diabetic control group (summary),alloxan diabetic rats; three weeks p.o.,small such as P = 0.05
same,"solubility in acetone, benzene, chloroform, ether and ethanol",Solubility; organic solvents,easily soluble
same,solubility in water,Solubility; water,hardly soluble
same,"appearance of toxicity (hematological, blood biochemical, histological searches)",rats [4],there could not be entirely recognized the appearance of the toxicity
same,death case,rats [4],There could not be found the death case
same,restraint of weight,rats [4],There could not be found the death case and the restraint of weight
same,"appearance of toxicity (hematological, blood biochemical, histological searches)",beagles,there could not be entirely recognized the appearance of the toxicity
same,death case,beagles,There could not be found the death case
same,restraint of weight,beagles,There could not be found the death case and the restraint of weight
same,"effects for mothers, foetuses and neonatal animals",pregnant rats,"there could not be recognized any effects for mothers, foetuses and neonatal animals"
same,malformation,pregnant rats,no malformation could be entirely found
CCCCNC(=O)NS(=O)(=O)c1ccc(N)cc1 [Carbutamide],effect for depressing a blood-sugar amount,blood-sugar amount,remarkable effect for depressing a blood-sugar amount
"O=C(O)c1cccnc1 [Compound NA, nicotinic acid]",restraining effect on quantity of glycosuria,"alloxan diabetic rats; FIG. 1, urine for 24 hours",the restraining effect could not be found
same,quantity of blood-sugar versus alloxan diabetic control group (in words),alloxan diabetic rats; three weeks p.o.,there can not be found the differences
same,effect for treatment of alloxan-diabetes (conclusion),alloxan diabetic rats; three weeks p.o.,such effect can not be found
same,blood-sugar level compared with diabetic control group (summary),alloxan diabetic rats; three weeks p.o.,there could not be found the difference
same,quantity of glycosuria compared with diabetic control group (summary),alloxan diabetic rats; three weeks p.o.,there could not be found the difference
same,urinary volume compared with diabetic control group (summary),alloxan diabetic rats; three weeks p.o.,there could not be found the difference
[H]/N=C(/N)N/C(=N/[H])NCCc1ccccc1 [Phenformin],"number of deaths due to heart-blood vessel disorder, compared with placebo group",[5],2.5 times
CCCCNC(=O)NS(=O)(=O)c1ccc(C)cc1 [Tolbutamide],"number of deaths due to heart-blood vessel disorder, compared with placebo group",[5],2.5 times
